Measurements: patent US4348264A, “Photocatalyzed process for producing carbapenams and carbapen-2-ems” (Pfizer Inc., priority 1981, dated 1982)
In brackets after ≈: the same amount, converted by molar mass. Read-outs that look alike come from different tables or passages of the source.

Experiments:
Assay type in all cases: cell-based
[1] = system: Pseudomonas aeruginosa; experiment: Serial dilution-tube method, MIC; details: Pseudomonas aeruginosa; brain heart infusion broth; read-out: Minimum Inhibitory Concentration
[2] = system: Staphylococcus aureus; experiment: Serial dilution-tube method, MIC; details: Staphylococcus aureus
[3] = system: Escherichia coli; experiment: Serial dilution-tube method, MIC; design: key to synergistic effect with ampicillin: Shows a synergistic effect when tested 1:1 with ampicillin; details: for MIC: Escherichia coli, brain heart infusion broth, read-out: Minimum Inhibitory Concentration
[4] = system: Klebsiella pneumoniae; experiment: Serial dilution-tube method, MIC; details: Klebsiella pneumoniae; brain heart infusion broth; read-out: Minimum Inhibitory Concentration
[5] = system: Staphylococcus aureus (Antibiotic Resistant); experiment: Serial dilution-tube method, MIC; design: key to synergistic effect with ampicillin: Shows a synergistic effect when tested 1:1 with ampicillin; details: for MIC: Staphylococcus aureus, brain heart infusion broth, read-out: Minimum Inhibitory Concentration; for synergistic effect with ampicillin: tested 1:1 with ampicillin
[6] = system: Serratia marcescens; experiment: Serial dilution-tube method, MIC; details: Serratia marcescens; brain heart infusion broth; read-out: Minimum Inhibitory Concentration
[7] = system: Enterobacter cloacae; experiment: Serial dilution-tube method, MIC; details: Enterobacter cloacae; brain heart infusion broth; read-out: Minimum Inhibitory Concentration
[8] = system: Citrobacter diversus; experiment: Serial dilution-tube method, MIC; details: Citrobacter koseri; brain heart infusion broth; read-out: Minimum Inhibitory Concentration
[9] = system: Escherichia coli (Antibiotic Resistant); experiment: Serial dilution-tube method, MIC; design: key to synergistic effect with cefazolin: b: Shows a synergistic effect when tested 1:1 with cefazolin; details: for MIC: Escherichia coli, brain heart infusion broth, read-out: Minimum Inhibitory Concentration
[10] = system: Proteus morgani; experiment: Serial dilution-tube method, MIC; details: brain heart infusion broth; read-out: Minimum Inhibitory Concentration
[11] = system: Bacillus subtilis; experiment: Standard disc-plate method, zone of inhibition; details: Bacillus subtilis; 25 microgram discs
Description: (§1) The utility of the various compounds as intermediates to other compounds of the present invention will be evident from the preceding discussion. The antibacterial activity of these compounds, reflecting their utility in the control of susceptible bacterial infections in man and animals, as animal feed additives for promotion of growth, or as preservatives of materials biodegraded by susceptible microorganisms, is best measured by the standard disc-plate method routinely employed in clinical laboratories for determining the sensitivity of microorganisms to antimicrobial substances. Sensitivity discs are prepared by dipping a standard 6.25 mm. paper disc into a solution of the compound to be tested (conc. 1 mg./ml.) in a volatile solvent (e.g. methylene chloride) and the disc dried, producing discs containing approximately 25 microg. of the compound. The discs are placed on the surface of agar growth media seeded with the test microorganism, previously plated into Petri dishes. The plates are incubated overnight at 35°-37° C. Activity of the test compound is reflected by a zone of inhibition of bacterial growth around the test disc. The diameter of this zone provides a quantitative measure of the activity of the antibacterial substance. The activity of various compounds of the present invention is summarized in Table I. For comparison, results obtained with 10 microg. discs of ampicillin and penicillin G are included as positive controls.

[12] = system: Staphylococcus aureus (Antibiotic Resistant); experiment: Standard disc-plate method, zone of inhibition; details: Staphylococcus aureus; 25 microgram discs; antibiotic resistant
Description: as §1

[13] = system: Escherichia coli; experiment: Standard disc-plate method, zone of inhibition; details: Escherichia coli, 25 microgram discs
Description: as §1

[14] = system: Micrococcus luteus; experiment: Standard disc-plate method, zone of inhibition; details: Micrococcus luteus; 25 microgram discs
Description: as §1

[15] = system: Staphylococcus aureus; experiment: Standard disc-plate method, zone of inhibition; details: Staphylococcus aureus; 25 microgram discs
Description: as §1

[16] = system: Vibrio percolans; experiment: Standard disc-plate method, zone of inhibition; details: Comamonas terrigena, 25 microgram discs
Description: as §1

[17] = brain heart infusion broth, read-out: Minimum Inhibitory Concentration

Structure (SMILES) | MIC [1] | MIC [2, 17] | MIC [3] | MIC [4] | MIC [5] | MIC [6] | MIC [7] | MIC [8] | MIC [9] | MIC [10] | MIC ([2]; serial dilution tube test, read-out: minimum inhibitory concentration) | synergistic effect with ampicillin [5] | zone of inhibition at 25 µg/disc [11] | zone of inhibition at 25 µg/disc [12] | zone of inhibition at 25 µg/disc [13] | zone of inhibition at 25 µg/disc [14] | zone of inhibition at 25 µg/disc [15] | synergistic effect with ampicillin ([3]; tested 1:1 with ampicillin) | zone of inhibition at 25 µg/disc [16] | synergistic effect with cefazolin ([9]; tested 1:1 with cefazolin)
CCN1CCN(C(=O)N[C@@H](C(=O)NC2C(=O)N3C(C(=O)OCOC(=O)C(C)(C)C)C(C)C(=O)C23)c2ccccc2)C(=O)C1=O (stereo partly shown) [EPA H POM CH3 O I, Pivaloyloxymethyl 2-Methyl-1-oxo-6-[2-phenyl-2-(4-ethyl-2,3-dioxopiperazine-1-carboxamido)acetamido]carbapenam-3-carboxylate] | > 200 µg/mL | 100 µg/mL (≈ 163 µM) | 100 µg/mL | 100 µg/mL (≈ 163 µM) | > 200 µg/mL | 100 µg/mL (≈ 163 µM) | 200 µg/mL (≈ 326 µM) | 100 µg/mL (≈ 163 µM) | > 200 µg/mL | 25 µg/mL (≈ 40.7 µM) |  |  | 21 mm | 12 mm | 12 mm |  | 12 mm | a | 21 mm | 
CC(=O)OC1C(C)C(C(=O)O)N2C(=O)CC12 (stereo not shown) [H H H CH3 H OAc I, 1-Acetoxy-2-methylcarbapenam-3-carboxylic Acid] | > 200 µg/mL | > 200 µg/mL | > 200 µg/mL | > 200 µg/mL | > 2000 µg/mL | > 200 µg/mL | > 200 µg/mL | > 200 µg/mL | > 200 µg/mL | > 200 µg/mL |  |  | 12 mm | 0 mm |  |  | 0 mm |  |  | 
CCN1CCN(C(=O)N[C@@H](C(=O)NC2C(=O)N3C(C(=O)O)C(C)C(O)C23)c2ccccc2)C(=O)C1=O (stereo partly shown) [EPA H H CH3 H OH I, Sodium 1-Hydroxy-2-methyl-6-[2-phenyl-2-(4-ethyl-2,3-dioxopiperazine-1-carboxamido)acetamido]carbapenam-3-carboxylate] | > 200 µg/mL | 50 µg/mL | 100 µg/mL | > 200 µg/mL | 200 µg/mL | > 200 µg/mL | 50 µg/mL | > 200 µg/mL | > 200 µg/mL | 50 µg/mL |  |  | 16 mm | 9 mm | 16 mm |  | 15 mm |  | 25 mm | 
CCN1CCN(C(=O)N[C@@H](C(=O)NC2C(=O)N3C(C(=O)OCOC(=O)C(C)(C)C)C(C)C(O)C23)c2ccccc2)C(=O)C1=O (stereo partly shown) [EPA H POM CH3 H OH I, Pivaloyloxymethyl 1-Hydroxy-2-methyl-6-[2-phenyl-2-(4-ethyl-2,3-dioxopiperazine-1-carboxamido)acetamido]carbapenam-3-carboxylate] | 200 µg/mL (≈ 325 µM) | 25 µg/mL (≈ 40.6 µM) | 6.25 µg/mL | 12.5 µg/mL (≈ 20.3 µM) | > 200 µg/mL | 25 µg/mL (≈ 40.6 µM) | 12.5 µg/mL (≈ 20.3 µM) | 12.5 µg/mL (≈ 20.3 µM) | > 200 µg/mL | ≤ 0.39 µg/mL |  |  | 17 mm | 10 mm | 20 mm |  | 18 mm |  | 24 mm | 
CC1C(O)C2CC(=O)N2C1C(=O)OCOC(=O)C(C)(C)C (stereo not shown) [H H POM CH3 H OH I, Pivaloyloxymethyl 1-Hydroxy-2-methylcarbapenam-3-carboxylate] | > 200 µg/mL | > 200 µg/mL | > 200 µg/mL | > 200 µg/mL | > 200 µg/mL | > 200 µg/mL | > 200 µg/mL | > 200 µg/mL | > 200 µg/mL | > 200 µg/mL |  |  | 0 mm | 0 mm |  |  | 0 mm |  |  | 

Now from value to compound, other results behind:

MIC [1] | MIC [2, 17] | MIC [3] | MIC [4] | MIC [5] | MIC [6] | MIC [7] | MIC [8] | MIC [9] | MIC [10] | MIC ([2]; serial dilution tube test, read-out: minimum inhibitory concentration) | Structure (SMILES) | synergistic effect with ampicillin [5] | zone of inhibition at 25 µg/disc [11] | zone of inhibition at 25 µg/disc [12] | zone of inhibition at 25 µg/disc [13] | zone of inhibition at 25 µg/disc [14] | zone of inhibition at 25 µg/disc [15] | synergistic effect with ampicillin ([3]; tested 1:1 with ampicillin) | zone of inhibition at 25 µg/disc [16] | synergistic effect with cefazolin ([9]; tested 1:1 with cefazolin)
> 200 µg/mL | 25 µg/mL (≈ 55.7 µM) | > 200 µg/mL | > 200 µg/mL | 200 µg/mL | > 200 µg/mL | > 200 µg/mL | > 200 µg/mL | > 200 µg/mL | > 200 µg/mL |  | CC1C(O)C2C(NC(=O)COc3ccccc3)C(=O)N2C1C(=O)OCOC(=O)C(C)(C)C (stereo not shown) [PMA H POM CH3 H OH I, Pivaloyloxymethyl 1-Hydroxy-2-methyl-6-(2-phenoxyacetamido)carbapenam-3-carboxylate] | a | 23 mm | 17 mm | 0 mm | 14 mm | 20 mm |  |  | 
> 200 µg/mL |  | > 200 µg/mL | > 200 µg/mL | > 200 µg/mL | > 200 µg/mL | > 200 µg/mL | > 200 µg/mL | > 200 µg/mL | > 200 µg/mL |  | CC1C(=O)C2C(NC(=O)COc3ccccc3)C(=O)N2C1C(=O)OCOC(=O)C(C)(C)C (stereo not shown) [PMA H POM CH3 O I, Pivaloyloxymethyl 2-Methyl-1-oxo-6-(2-phenoxyacetamido)carbapenam-3-carboxylate] |  | 21 mm | 12 mm | 0 mm | 15 mm |  |  |  | 
> 200 µg/mL | > 200 µg/mL | > 200 µg/mL | > 200 µg/mL | > 200 µg/mL | > 200 µg/mL | > 200 µg/mL | > 200 µg/mL | > 200 µg/mL | > 200 µg/mL | > 200 µg/mL | CC1C(=O)C2CC(=O)N2C1C(=O)OCOC(=O)C(C)(C)C (stereo not shown) [H H POM CH3 O I, Pivaloyloxymethyl 2-Methyl-1-oxocarbapenam-3-carboxylate] | a | 18 mm | 0 mm |  |  | 18 mm |  |  | b
> 200 µg/mL | 100 µg/mL (≈ 200 µM) | > 200 µg/mL | > 200 µg/mL | 100 µg/mL | > 200 µg/mL | > 200 µg/mL | > 200 µg/mL | > 200 µg/mL | > 200 µg/mL |  | Cc1onc(-c2ccccc2)c1C(=O)NC1C(=O)N2C(C(=O)OCOC(=O)C(C)(C)C)C(C)C(O)C12 (stereo not shown) [MPI H POM CH3 H OH I, Pivaloyloxymethyl 1-Hydroxy-2-methyl-6-(5-methyl-3-phenylisoxazole-4-carboxamido)carbapenam-3-carboxylate] |  | 16 mm | 14 mm | 0 mm |  | 15 mm |  | 13 mm | 
> 200 µg/mL | > 200 µg/mL | > 200 µg/mL | > 200 µg/mL | > 200 µg/mL | > 200 µg/mL | > 200 µg/mL | > 200 µg/mL | > 200 µg/mL | > 200 µg/mL |  | COC1(NC(=O)COc2ccccc2)C(=O)N2C(C(=O)OCOC(=O)C(C)(C)C)C(C)C(=O)C21 (stereo not shown) [PMA OMe POM CH3 O I, Pivaloyloxymethyl 6-Methoxy-2-methyl-1-oxo-6-(2-phenoxyacetamido)carbapenam-3-carboxylate] | a | 11 mm | 0 mm | 0 mm |  | 0 mm |  | 0 mm | 
> 200 µg/mL | > 200 µg/mL | > 200 µg/mL | > 200 µg/mL | > 200 µg/mL | > 200 µg/mL | > 200 µg/mL | > 200 µg/mL | > 200 µg/mL | > 200 µg/mL |  | COC1(NC(=O)COc2ccccc2)C(=O)N2C(C(=O)OCOC(=O)C(C)(C)C)C(C)C(O)C21 (stereo not shown) [PMA OMe POM CH3 H OH I, pivaloyloxymethyl 1-hydroxy-6-methoxy-2-methyl-6-(2-phenoxyacetamido)carbapenam-3-carboxylate] |  | 11 mm | 0 mm | 0 mm |  | 23 mm |  | 0 mm | 
